The values that follow come from article PMC2742655 (Bioorganic & medicinal chemistry letters, 2009).

For experiment [1], the target named is T1, falcipain-2 (FP-2) (Plasmodium falciparum, UniProt Q8I6U4).
T1 sequence (Q8I6U4 244-484): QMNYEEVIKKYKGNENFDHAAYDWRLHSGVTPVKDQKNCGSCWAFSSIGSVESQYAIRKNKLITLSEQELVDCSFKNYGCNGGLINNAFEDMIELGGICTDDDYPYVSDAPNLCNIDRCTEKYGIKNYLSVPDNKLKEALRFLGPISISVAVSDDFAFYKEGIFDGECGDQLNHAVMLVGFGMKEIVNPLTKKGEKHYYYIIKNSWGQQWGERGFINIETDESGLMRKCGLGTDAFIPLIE
It is filed as biochemical. The conditions noted are these: ratio 6d:12d:5, relative to 5 = 1.

Experiment [2] concerns P. falciparum trophozoites (food vacuole). The conditions noted are these: parasites incubated with compound; cited from earlier work.
Experiment [3] concerns P. falciparum W2 strain (chloroquine-resistant). In words: Antiplasmodial activity, growth of P. falciparum W2 strain. Type of experiment: cell-based. As to conditions: Plasmodium falciparum, W2, read-out: IC50 W2.
Experiment [4] concerns P. falciparum FCR3 (atovaquone resistant). In words: Antiplasmodial activity, FCR3 strain. It is filed as cell-based. As to conditions: Plasmodium falciparum, FCR3, read-out: IC50 FCR3.
Experiment [5] concerns P. falciparum 3D7 (chloroquine-sensitive). In words: Antiplasmodial activity, 3D7 strain. Type of experiment: cell-based. The conditions noted are these: Plasmodium falciparum, 3D7, read-out: IC50 3D7.
Experiment [6] deals with P. falciparum V1/S (chloroquine and pyrimethamine resistant). In words: microbe, parasite or virus in culture. Type of experiment: cell-based. The conditions noted are these: Plasmodium falciparum, read-out: IC50 VI/S.
Experiment [7] relates to P. falciparum D6 (chloroquine sensitive, mefloquine resistant). In words: Antiplasmodial activity, D6 strain. As to conditions: Plasmodium falciparum, D6, read-out: IC50 D6. It is filed as cell-based.

In the case of `CC(C)C[C@H](NC(=O)OC(C)(C)C)C(=O)N[C@H](/C=C/S(=O)(=O)c1ccccc1)CCc1ccccc1` [Compound 12d], the “IC50 ratio for FP-2 inhibition” value in experiment [1] turned out to be 70.

For the compound `CC(C)C[C@H](NC(=O)[C@H]1O[C@@H]1C(=O)O)C(=O)NCCCCN=C(N)N` [Compound E64, E64], the “swollen food vacuole abnormality (block in hemoglobin hydrolysis)” value in experiment [2] is “observed”.

For `CC(C)C[C@H](NC(=O)N1CCOCC1)C(=O)N[C@H](/C=C/S(=O)(=O)c1ccccc1)CCc1ccccc1` [Compound 5, Mu-Leu-hPhe-VSPh], the “IC50 ratio for FP-2 inhibition” value in experiment [1] is 1.

For `CC(C)C[C@H](NC(=O)c1ccc(CO[C@H]2O[C@@H]3O[C@@]4(C)CC[C@H]5[C@H](C)CC[C@@H]([C@H]2C)[C@@]35OO4)cc1)C(=O)N[C@H](/C=C/S(=O)(=O)c1ccccc1)CCc1ccccc1` [Compound 6d], the “IC50 ratio for FP-2 inhibition” value in experiment [1] is 1650.

For the compound `CCN(CC)CCCC(C)Nc1ccnc2cc(Cl)ccc12` (stereo not drawn) [Chloroquine], the IC50 in experiment [3] was 0.0781 ± 0.00691 µM; in experiment [4], 0.0511 ± 0.0001 µM; in experiment [5], 0.0116 ± 0.0011 µM; in experiment [6], 0.065 ± 0.0041 µM; in experiment [7] it was 0.0169 ± 0.0021 µM.
